Results: ChEMBL document CHEMBL3853344, “A druggable target for rescuing microRNA defects” (Bioorg Med Chem Lett, 2016)
Activity calls are given as the source filed them. The rule behind the calls is not given here.

These compounds were tested on T1, Translin-associated protein X (Homo sapiens), Q99598 [E126A] (assay: Inhibition of wild type His-tagged translin/trax E126A mutant (unknown origin) coexpressed in Escherichia coli BL21 cells assessed as increase in Dicer-mediated 5'-gamma32P-ATP labeled pre-miRNA processing at 5 uM after 15 mins by gel electrophoresis assay).
T1 sequence (whole entry): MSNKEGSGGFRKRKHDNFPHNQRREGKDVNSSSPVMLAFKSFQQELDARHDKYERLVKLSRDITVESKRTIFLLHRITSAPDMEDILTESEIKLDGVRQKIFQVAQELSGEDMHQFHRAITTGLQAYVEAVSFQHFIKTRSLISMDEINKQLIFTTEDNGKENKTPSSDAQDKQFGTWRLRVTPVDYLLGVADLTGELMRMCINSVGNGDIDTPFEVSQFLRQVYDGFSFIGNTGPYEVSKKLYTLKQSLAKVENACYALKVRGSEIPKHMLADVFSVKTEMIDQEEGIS

In the case of O=c1oc2c(O)c(O)cc3c(=O)oc4c(O)c(O)cc1c4c23 [ELLAGIC ACID], the inhibition is reported as “Active”.

What follows are compounds tested on T1, Translin-associated protein X (Homo sapiens), Q99598 [E126A] (assay: Inhibition of wild type His-tagged translin/trax E126A mutant (unknown origin) coexpressed in Escherichia coli BL21 cells using RNase Alert as substrate at 30 uM incubated for 10 mins prior to substrate addition monitored over 60 mins by fluorescence assay).

Going from Cc1cc(O)c(C=O)c2c1C(=O)Oc1c(C)c(O)c3c(c1O2)C(O)OC3=O (stereo unspecified) to COc1cc(C)c2c(c1C=O)Oc1c(c(C)c(O)c3c1C(O)OC3=O)OC2=O (stereo unspecified), the inhibition falls from 66% to 58%.

Compared with Oc1cc(O)c2c(c1)O[C@H](c1cc(O)c(O)c(O)c1)[C@H](O)C2, O=c1c(O)cc(C2Oc3cc(O)cc(O)c3CC2O)cc2cc(O)c(O)c(O)c12 (stereo unspecified) is higher in inhibition: 68% for the first, 75% for the second.

First: O=C(OC[C@H]1O[C@@H](OC(=O)c2cc(O)c(O)c(OC(=O)c3cc(O)c(O)c(O)c3)c2)[C@H](OC(=O)c2cc(O)c(O)c(OC(=O)c3cc(O)c(O)c(O)c3)c2)[C@@H](OC(=O)c2cc(O)c(O)c(OC(=O)c3cc(O)c(O)c(O)c3)c2)[C@@H]1OC(=O)c1cc(O)c(O)c(OC(=O)c2cc(O)c(O)c(O)c2)c1)c1cc(O)c(O)c(OC(=O)c2cc(O)c(O)c(O)c2)c1
Second: O=C(Oc1cc(O)cc2c1C[C@@H](OC(=O)c1cc(O)c(O)c(O)c1)[C@@H](c1cc(O)c(O)c(O)c1)O2)c1cc(O)c(O)c(O)c1
The inhibition of the first is higher: 103% for the first, 83% for the second.

Compared with O=c1c(-c2cc(O)c(O)c(O)c2)coc2cc(O)c(O)c(O)c12, O=c1c(O)c(-c2ccc(O)c(O)c2)oc2cc(O)cc(O)c12 is lower in inhibition: 78% for the first, 58% for the second.

First: Oc1cc2c(cc1O)[C@@H]1c3ccc(O)c(O)c3OC[C@]1(O)C2
Second: O=c1oc2c(O)c(O)cc3c(=O)oc4c(O)c(O)cc1c4c23 [ELLAGIC ACID]
The inhibition of the first is lower: 63% for the first, 94% for the second.

Compared with CCCCC(CC)CNC(=N)NC(=N)NCCCCCCNC(=N)NC(=N)NCC(CC)CCCC (stereo unspecified), CCCCCCCCCCCCCCCCC(C(=O)O)C(O)(CC(=O)O)C(=O)O (stereo unspecified) is lower in inhibition: 103% for the first, 58% for the second.

Compared with CC(C)(O/N=C(\C(=O)N[C@@H]1C(=O)N2C(C(=O)[O-])=C(C[n+]3ccccc3)CS[C@H]12)c1csc(N)n1)C(=O)O, O=C(O[C@@H]1Cc2c(O)cc(O)cc2O[C@@H]1c1cc(O)c(O)c(O)c1)c1cc(O)c(O)c(O)c1 is lower in inhibition: 100% for the first, 88% for the second.

O=C1C(O)=C(O)C(=O)C(O)=C1O and Oc1c(Cl)cc(Cl)c(Cl)c1Cc1c(O)c(Cl)cc(Cl)c1Cl are the same in inhibition: 66% for the first, 66% for the second.

Going from Cc1ccc(C(=O)Nc2ccc(S(=O)(=O)O)c3cc(S(=O)(=O)O)cc(S(=O)(=O)O)c23)cc1NC(=O)c1cccc(NC(=O)Nc2cccc(C(=O)Nc3cc(C(=O)Nc4ccc(S(=O)(=O)O)c5cc(S(=O)(=O)O)cc(S(=O)(=O)O)c45)ccc3C)c2)c1 to O=S(=O)(O)c1cc(N=C=S)ccc1/C=C/c1ccc(N=C=S)cc1S(=O)(=O)O, the inhibition rises from 61% to 103%.

For CCCCCCCCCCCCCCCC[n+]1ccccc1, the inhibition was 56%.

These compounds were tested against Translin-associated protein X (Homo sapiens, UniProt Q99598, E126A) (assay: Inhibition of wild type His-tagged translin/trax E126A mutant (unknown origin) coexpressed in Escherichia coli BL21 cells assessed as reduction in pre-miRNA degradation by gel electrophoresis assay).

Work on O=c1oc2c(O)c(O)cc3c(=O)oc4c(O)c(O)cc1c4c23 [ELLAGIC ACID] yielded an IC50 of 3.5 µM.
